From PubChem BioAssay AID179 (DTP/NCI, 2004)
pEC50, pIC50: −log10 of the molar value. Activity calls are given as the source filed them.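 Rule for the calls: active = compounds giving half or more protection of infected cells from virus-caused growth loss, again on retest; inactive = the rest.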 Where a SMILES comes first, the peptide text is derived from it.

Test system: CEM cells HIV-1 protection, formazan growth assay
Experiment: NCI AIDS Antiviral Assay
Conditions: for pIC50: measured here: growth of uninfected CEM cells
How it was run: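 Human CEM cells, uninfected and HIV-1-infected, exposed to five drug concentrations; growth measured by soluble formazan assay and scored as percent protection from infection, with protecting compounds retested.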

## COC(=O)c1ccc(COC(=O)c2cc(C(=CCC[C@H]3CC[C@@]4(C)[C@@H](CC[C@@H]5[C@@H]4CC[C@]4(C)[C@@H](C(C)CCCC(C)C)CC[C@@H]54)C3)c3cc(Cl)c(OCc4ccc(C(=O)OC)cc4)c(C(=O)OCc4ccc(C(=O)OC)cc4)c3)cc(Cl)c2OCc2ccc(C(=O)OC)cc2)cc1 (stereo partly drawn)
  pEC50: < 3.70
  pIC50: < 3.70

## OCCN(CCO)c1ccc2ccc(N(CCO)CCO)nc2n1
  pEC50: < 3.70
  pIC50: 4.59

## CC1(C)CC(=O)C(=CN2C(=O)CNC2=S)C(=O)C1
  pEC50: < 3.70
  pIC50: < 3.70

## C/C=N\n1c(C)n[nH]c1=O
  pEC50: < 3.70
  pIC50: < 3.70

## CC(C)(O)[C@@H]1CC[C@](C)(C2[C@@H](O)C[C@@]3(C)C4C[C@H](OC5OCC(O)C(O)C5O)[C@H]5C(C)(C)[C@@H](OC6OCC(O)C(O)C6OC6OCC(O)C(O)C6O)CC[C@@]56C[C@@]46CC[C@]23C)O1 (stereo partly drawn)
  pEC50: < 3.70
  pIC50: < 3.70

## N#C[C@@H](c1nc2ccccc2s1)c1ncccc1[N+](=O)[O-]
  pEC50: < 3.70
  pIC50: 4.70

## COC(=O)c1ncn(C2CCCCC2)c1O
  pEC50: < 3.70
  pIC50: < 3.70

## O=C(O)c1nc2cc(C(F)(F)F)ccc2[nH]c1=O
  pEC50: < 3.70
  pIC50: < 3.70

## CCn1c(=O)[nH]c(=O)c2conc21
  pEC50: < 2.86
  pIC50: 3.18

## O=C(NCCCCCCNC(=O)n1cc(F)c(=O)[nH]c1=O)NCCCOCCOCCOCCOCCOCCOCCOCCOCCOCCOCCOCCOCCOCCOCCOCCOCCOCCOCCOCCOCCOCCCNC(=O)C(O)C(O)C(O)C(O)CO (stereo not drawn)
  outcome: inactive

## O=C(NCc1ccc(Cl)cc1)c1cc2sccc2nc1C(F)(F)F
  pEC50: 4.03
  pIC50: < 3.70

## O=C1c2cccc3cccc(c23)C(=O)N1CC1CCCO1 (stereo not drawn)
  outcome: inactive

## Oc1cccc(C(O)CNC2CCCCC2)c1 (stereo not drawn)
  pEC50: < 3.70
  pIC50: < 3.70

## c1ccc(COC2C3COC(O3)C(OCc3ccccc3)C2OCc2ccccc2)cc1 (stereo not drawn)
  pEC50: < 3.70
  pIC50: 4.82

## Nc1nc(NNc2ccccc2F)cc(=O)[nH]1
  pEC50: < 3.70
  pIC50: 4.55

## CC(=O)OC1C2CCC1C1C2N=NN1c1ccc([N+](=O)[O-])cc1 (stereo not drawn)
  pEC50: < 3.82
  pIC50: < 3.82

## COc1cccc2c1C(=O)c1c(O)c3c(c(O)c1C2=O)C[C@@](O)(C(C)O)C[C@@H]3OC1CC(N)C(O)C(C)O1 (stereo partly drawn)
  outcome: inactive

## O=C(OCc1ccccc1)N(CCCCN(CCCNC(=O)C(F)(F)F)C(=O)OCc1ccccc1)CCCNC(=O)C(F)(F)F
  outcome: inactive

## COc1ccc(C(c2c(O)c3ccccc3oc2=O)N2CCCC2)c(OC)c1 (stereo not drawn)
  pEC50: < 3.70
  pIC50: 4.02

## COc1ccc(/C=C/C(=N/NC(=O)N/N=C(/C=C/c2ccc(OC)cc2)C(C)(C)CN2CCCCC2)C(C)(C)CN2CCCCC2)cc1
  pEC50: < 3.70
  pIC50: 5.68

## CC(CS(C)(=O)=O)S(=O)(=O)O (stereo not drawn)
  pEC50: < 3.70
  pIC50: < 3.70

## CCOC(=O)NC(=O)c1cn(CCCOC(=O)NCCCCCCNC(=O)OCCCn2cc(C(=O)NC(=O)OCC)c(=O)[nH]c2=O)c(=O)[nH]c1=O
  outcome: inactive

## Cc1ccc(S(=O)(=O)NNC(=O)c2sc(-c3nc(C)c(C(=O)NNS(=O)(=O)c4ccc(C)cc4)s3)nc2C)cc1
  pEC50: < 4.09
  pIC50: < 4.09

## CCCCCCCCCCCSSCCCCCCCCCCC
  pEC50: < 3.70
  pIC50: < 3.70

## c1ccc2oc(-c3ccc(-c4nc5ccccc5o4)c4c3CC4)nc2c1
  pEC50: < 4.30
  pIC50: < 4.30

## S=C(NCc1ccccc1)N/N=C/c1ccccn1
  pEC50: < 4.70
  pIC50: 6.85

## CCN(CC)CC(=O)Nc1ccc(Cl)cc1C(O)c1ccccc1 (stereo not drawn)
  pEC50: < 3.70
  pIC50: 3.92

## Cn1c(=O)c2c(n(C)c1=O)n1c(=O)c3ccccc3nc1n2C
  pEC50: < 3.70
  pIC50: < 3.70

## CCOC(CN=C=S)OCC
  pEC50: < 3.70
  pIC50: 4.56

## Cc1ccc(NC(=O)C(=O)C(C(=O)c2ccc3ccccc3c2)C2OC(=O)c3ccccc32)c(C)c1 (stereo not drawn)
  pEC50: < 4.12
  pIC50: 4.67

## COC(=O)[C@]1(C)CCCC2(C)C1CC[C@H]1C=C(C)[C@H]3CCC12C3 (stereo partly drawn)
  pEC50: < 3.95
  pIC50: < 3.95

## O=S1(=O)CC2C3C=CC(O3)C21 (stereo not drawn)
  pEC50: < 2.84
  pIC50: < 2.84

## Cc1cn(COCCOP(=O)(OCOC(=O)C(C)(C)C)OCOC(=O)C(C)(C)C)c(=O)[nH]c1=O
  pEC50: < 3.70
  pIC50: 3.96

## C=CCOc1ccc2c(C)cc(=O)oc2c1C
  pEC50: < 3.95
  pIC50: 3.99

## CC(NC(=O)C(CO)NC(=O)C(C)NC(=O)C(C)NC(=O)C(CC(N)=O)NC(=O)CN)C(N)=O (stereo not drawn) (H-GNAASA-NH2; configuration not given here)
  outcome: inactive

## COc1cc2cc(C(=O)N3CC(CCl)c4ccc([N+](C)(C)Cc5ccc([N+](=O)[O-])cc5)cc43)[nH]c2c(OC)c1OC (stereo not drawn)
  pEC50: < 3.70
  pIC50: 5.11

## Cc1c(O)c(OC2OC(CO)C(O)C(O)C2O)cc2c1CC[C@@H]1C2(C)C(=O)C[C@]2(C)[C@@H]([C@@](C)(O)C(O)/C=C/C(C)(C)O)[C@H](O)C[C@@]12C (stereo partly drawn)
  pEC50: < 3.70
  pIC50: < 3.70

## CN(C)c1ccc(/[N+]([O-])=C/c2cc(=O)c(OS(C)(=O)=O)co2)cc1
  pEC50: < 3.70
  pIC50: 5.51

## Cc1nc(Cl)c(Cl)c(Cl)n1
  outcome: inactive

## COc1ccc(CCCNC(=O)c2cc(OC)c(OC)cc2CCO)cc1OC
  pEC50: < 3.70
  pIC50: < 3.70

## COc1ccccc1C1c2cc3c(cc2OC2(OC)COC(=O)C12)OCO3 (stereo not drawn)
  pEC50: < 3.70
  pIC50: 4.99

## CCN(CC)P1(=O)C=C(C)C2C1C1C=C(C)C2P1(=O)N(CC)CC (stereo not drawn)
  outcome: inactive

## CN(C)C1C(=O)C(C(N)=O)=C(O)C2(O)C(=O)C3=C(O)c4c(O)cccc4C(C)(O)C3CC12.[Cl][Sb]([Cl])[Cl] (stereo not drawn)
  pEC50: < 3.70
  pIC50: 4.45

## O=c1[nH]c2ccccc2c(O)c1CCCC1CCCCC1
  pEC50: < 3.70
  pIC50: 3.88

## CCC1=NC(C(F)(F)F)(C(F)(F)F)N=C(/N=C(/N)N(C)C(C(C)C)P(=O)(OC(C)C)OC(C)C)O1 (stereo not drawn)
  pEC50: < 3.70
  pIC50: < 3.70

## CCCCC(/C=N/Nc1ccc([N+](=O)[O-])cn1)CC (stereo not drawn)
  pEC50: < 3.70
  pIC50: < 3.70

## c1ccc(Nc2nnc(-c3ccccc3Nc3ccccc3-c3nnc(Nc4ccccc4)s3)s2)cc1
  pEC50: < 3.70
  pIC50: 3.98

## O=S(=O)(C=C=CCO)c1ccccc1
  outcome: inactive

## C/C=C/OC1C(C2COC(C)(C)O2)OC2OC(C)(C)OC21 (stereo not drawn)
  pEC50: < 3.70
  pIC50: < 3.70

## C/C(CC(O)(C(F)(F)F)C(F)(F)F)=N\NC(N)=S
  pEC50: < 3.70
  pIC50: < 3.70

## CC1NOC(=O)C1N=Nc1cccc(Cl)c1 (stereo not drawn)
  pEC50: 5.28
  pIC50: 4.52

## CNC(=O)OCc1nc(N=[N+]=[N-])n(C)c1COC(=O)NC
  pEC50: < 3.70
  pIC50: 4.37

## CCN(CC)C1Oc2cc3c(cc2C(c2cc(OC)c(OC)c(OC)c2)C1C)OCO3 (stereo not drawn)
  pEC50: < 4.00
  pIC50: 6.27

## CCCCCCCCCCCCOCCOCCOCCOCCOCCOCC(=O)NC(Cc1ccccc1)C(=O)Oc1ccc([N+](=O)[O-])cc1 (stereo not drawn)
  pEC50: < 3.70
  pIC50: 4.75

## C#CCN1C(=O)c2ccccc2S1(=O)=O.[C-]#[O+].[C-]#[O+].[C-]#[O+].[C-]#[O+].[C-]#[O+].[C-]#[O+].[Co].[Co]
  pEC50: < 3.70
  pIC50: 5.15

## CC(C)(C)n1c(=O)n(-c2ccccc2)n(C(C)(C)C)c1=O
  pEC50: < 3.70
  pIC50: < 3.70

## CCOC(=O)/C(=C1/Nc2ccccc2S1)c1ncnc2nc[nH]c12
  outcome: inactive

## Oc1ccc(Oc2cc3c(cc2Oc2ccc(O)cc2)-c2nc-3nc3[nH]c(nc4nc(nc5[nH]c(n2)c2cc(Oc6ccc(O)cc6)c(Oc6ccc(O)cc6)cc52)-c2cc(Oc5ccc(O)cc5)c(Oc5ccc(O)cc5)cc2-4)c2cc(Oc4ccc(O)cc4)c(Oc4ccc(O)cc4)cc32)cc1
  pEC50: < 4.30
  pIC50: 4.64

## CCOC(=O)C1=C(OC(OCC)C(CC)[Se]c2ccccc2)CCCC1 (stereo not drawn)
  pEC50: < 4.63
  pIC50: < 4.63

## CO/C(=N\N=C\c1ccc(OC)c(OC)c1)c1ccncc1
  pEC50: < 3.36
  pIC50: 3.53

## CC1=C(C)C(=O)C(C2=CC(=O)C=CC2=O)=C(C2=CC(=O)C=CC2=O)C1=O
  pEC50: < 3.70
  pIC50: 5.01

## CCCCC1CC(c2ccc(Cl)cc2)=NO1 (stereo not drawn)
  pEC50: < 4.66
  pIC50: < 4.66

## COc1cc(/C=C(\C#N)C(N)=C(C#N)C#N)cc(O)c1O
  pEC50: < 4.32
  pIC50: < 4.32

## N#CC1(C#N)C2CCCCC23OC(=N)C1(C#N)C(c1ccccc1)O3 (stereo not drawn)
  pEC50: < 3.70
  pIC50: 5.25

## COc1ccc(-c2coc3cc(O)ccc3c2=O)cc1
  pEC50: < 3.70
  pIC50: < 4.00

## CCN(CC)CCN1C(=O)C(=O)N(c2cccc3ccccc23)C1=O
  pEC50: < 3.70
  pIC50: < 3.70

## COC(=O)/C=C/c1cc(OC)c2c(c1)[C@H](C(=O)OC)[C@@H](c1ccc(O)c(OC)c1)O2
  pEC50: < 4.70
  pIC50: 5.99

## Oc1c(C2=NNC(c3cccs3)C2)ccc2ccccc12 (stereo not drawn)
  pEC50: < 3.70
  pIC50: 4.48

## Nn1c(CCCCCCCCc2nnc(-c3c(O)ccc4ccccc34)n2N)nnc1-c1c(O)ccc2ccccc12
  pEC50: < 3.70
  pIC50: < 3.70

## C(=N\NC1=NCCCN1)/c1ccc2ccccc2c1
  pEC50: < 3.70
  pIC50: 5.08

## O=C(O)CN1CCN(CC(=O)N2CCN(C(=O)OCc3ccccc3)CC2)CCN(CC(=O)O)CCN(CC(=O)N2CCN(C(=O)OCc3ccccc3)CC2)CC1
  pEC50: < 3.70
  pIC50: < 3.70

## CCc1cccc(C(C)C)c1NC(=O)C(=O)CC(=O)c1sc(Nc2c(CC)cccc2C(C)(C)C)nc1C
  pEC50: < 3.70
  pIC50: 4.22

## NP(=O)(OCC1=CC(=O)c2ccccc2C1=O)N(CCBr)CCBr (stereo not drawn)
  outcome: inactive

## S=C(N/N=C(\C(=N/NC(=S)N1CCCCC1)c1ccccn1)c1ccccn1)N1CCCCC1
  pEC50: < 3.70
  pIC50: 4.40

## CC(Br)(c1ccccc1)[P+](c1ccccc1)(c1ccccc1)c1ccccc1 (stereo not drawn)
  pEC50: < 4.70
  pIC50: 6.06

## Oc1cc2c(cc1O)-c1[nH]ncc1CC2
  pEC50: < 4.17
  pIC50: 4.48

## [O-][N+]1=C2CCC/C(=N/O)C2(O)C2CCCCC21N1CCOCC1 (stereo not drawn)
  pEC50: < 3.70
  pIC50: < 3.70

## O=c1c2cccnc2ncn1CCN1CCCCC1
  outcome: inactive

## C/C(=N\N)C(CN(C)C)C(c1ccccc1)c1c(O)c2ccccc2oc1=O (stereo not drawn)
  pEC50: < 4.06
  pIC50: < 4.06

## CC(=O)O.[Ag]
  pEC50: < 4.19
  pIC50: 4.74
